Tests used:
[1] = system: Trypanosoma brucei rhodesiense; assay: Antitrypanosomal activity against bloodstream form of Trypanosoma brucei rhodesiense STIB 900 by Alamar Blue assay; type: functional, organism-based
[2] = Selectivity index, ratio of IC50 for rat L6 cells to IC50 for bloodstream form of Trypanosoma brucei rhodesiense STIB 900; type: toxicity, cell-based; settings: read-out: Ratio IC50
L6 = assay: Cytotoxicity against rat L6 cells by Alamar Blue assay; type: cell-based

IC50 [1]: 5.6 µM
Compound: C[C@H]1[C@H](C)CC(=O)O[C@]2(C)CC[C@]3(C)C(=C[C@@H](O)[C@@H]4[C@@]5(C)[C@H](O)CC(=O)C(C)(C)[C@@H]5CC[C@]43C)[C@H]12
selectivity ratio [2]: 33.1
IC50 (L6): > 185 µM

— ChEMBL document CHEMBL2417546, “Antitrypanosomal triterpenoid with an ε-lactone E-ring from Salvia urmiensis” (J Nat Prod, 2013)
